Six molecules from patent US5962291A, “Metal dependent catalytic antibodies and method for producing the same” (The Regents of the University of Colorado, priority 1997, dated 1999) can be followed below.

Common to all, as to type: biochemical, mice
The subject of test [1] is monoclonal antibody 6A1A6 (metal dependent catalytic antibody, IgG). Briefly: Hydrolysis of 14C-labeled ATP, ADP and AMP by antibody 6A1A6, silica TLC analysis. Particulars: for Km / Vmax: 37° C., 0.5 mM EDTA, 1 mM MgCl2, 40 mM CHES, pH 9.0, 1.9 μM antibody. As to the method:
General. […] EDTA was added to reactions to a concentration that removed the catalytic activity. MgCl2 or other metal salts were then added back to the reactions at the optimum level. Antibody concentration was adjusted for each system to obtain useable data in a reasonable reaction time and varied from 0.5-4 μM.
(§1) Kinetic analyses were done by standard methods as described. Rates were defined as initial velocities and reported in min^-1 or sec^-1. Each assay was done in duplicate or triplicate to allow for error analysis. Background rates were measured using an identical reaction mixture without antibody present. Michales-Menten parameters kcat and Km were derived from Eadie-Hofstee or weighted Lineweaver-Burk plots (using the computer program Enzyme Kinetics 1.0, Macintosh, Trinity Software). Inhibitory constants, Ki, were derived from Dixon or Lineweaver-Burk plots.
Thin Layer Chromatography. Reactions were quenched and analyzed by spotting on a TLC plate. Two systems were used. PEI-cellulose coated plates were run in 1.5 M formic acid/0.5 M LiCl (Rf values: […], 0.3; Pi, 0.8). (In some cases it was useful to pre-run the TLC plate in H2 O to reduce smearing). Silica coated plates were run in isopropanol:NH4OH:H2 O, (50:25:25) (Rf values: ATP, 0.36; ADP, 0.55; AMP, 0.7; and Adenosine, 0.95). Assays involving the visualization of pyrophosphate used two TLC systems simultaneously: the silica system described (Rf values: PPi,O; Pi, 0.3), and a PEI-cellulose system run in 0.3 M sodium phosphate, pH=7.0 (Rf values: ATP, 0.2; ADP, 0.4; AMP, 0.6; PPi, 0.15; and Pi, 0.65). Radioactivity was quantitated using a Molecular Dynamics Phosphorlmager.
Kinetic Assays Using ^14 C-Labeled Compounds. Assays were performed with [8-^14 C]ATP, [8-^14 C]ADP, and [^14 C(U)]AMP. […] Immediately before each reaction, the solution was evaporated to dryness in vacuo and the compound resuspended in an equal volume of water. […] Reactions were quenched and analyzed by the silica TLC system.

Test [2] has as its target monoclonal antibody 6A1A6 (metal dependent catalytic antibody, IgG). Nature of the test: Spectrophotometric (405 nm) hydrolysis of p-nitrophenyl ester substrates by antibody 6A1A6. Particulars: for Ki: pH 9.0, 10 mM MgCl2. The procedure:
General. Because antibody 6A1A6, see Table 2, was metal dependent, a few precautions were taken to insure consistent results for all assays. […] EDTA was added to reactions to a concentration that removed the catalytic activity. MgCl2 or other metal salts were then added back to the reactions at the optimum level. Antibody concentration was adjusted for each system to obtain useable data in a reasonable reaction time and varied from 0.5-4 μM.
as §1
p-Nitrophenyl Esters as Substrates. A useful system to assess cleavage utilized substrates containing esters with p-nitrophenol leaving groups. This assay was fast, reproducible and much more trouble free than the fluorescence assays. It relied on the fact that the anion cleavage product, p-nitrophenolate, is yellow at basic pH and its appearance can be followed spectrophotometrically at 405 nm.
Antibody 6A1A6 was assayed spectrophotometrically for its ability to cleave the above mentioned substrates containing the p-nitrophenyl leaving group at 405 nm using a Molecular Devices Vmax® kinetic microplate reader. Kinetic assays were performed in triplicate at 25° C. in 40 mM TAPS, 150 mM NaCl, 10 mM MgCl2, 0.5-0.6 μM antibody, pH=9.0.
Phosphodiester Substrate. […] This represents the first report of a catalytic antibody capable of hydrolyzing a phosphodiester bond. pNPPT is normally used as a substrate for snake venom phosphodiesterase. […] The uncatalyzed rate under these conditions was 1.35×10^-6 min^-1. […] The Ki is defined as the negative x-coordinate of the intersection point of the lines in a Dixon plot.
Phosphomonoester Substrate. Under reaction condition identical to those used for pNPPT, the antibody also catalyzes the hydrolysis of p-nitrophenyl phosphate (pNPP). […] The uncatalyzed rate was 3.4×10^-6 min^-1.

Test [3] has the same target. Nature of the test: Hydrolysis of oligomer T15 (DNase activity) by antibody 6A1A6, inhibition by hapten. Particulars: substrate oligomer T15; pH 9, 1 mM Mg2+; read-out: Ki (competitive inhibition of DNase activity). As to the method: as §1
It was unknown what type of specificity antibody 6A1A6 would have for a DNA polymer. Several possible activities were monitored under conditions of pH 9 and 1 mM Mg^2+ that were optimal for ATP hydrolysis.
Kinetic Parameters. Kinetic experiments were performed with T15 as a substrate. Due to the very slow rate of hydrolysis, experiments were done under single turnover conditions with enzyme excess.
Control Experiments. Standard controls were performed using oligomer T15 as a substrate. Immunoprecipitation reduced activity by 93%. The remaining activity could be due to incomplete immunoprecipitation, but could also be due to a contaminating nuclease. […] Fab fragments retained 46±17% of the original activity.

Where [4] appears, read: substrate pNPP, read-out: Ki (competitive inhibition of pNPP hydrolysis).

The Km is the concentration of substrate that gives half-maximal velocity. For `Nc1ncnc2c1ncn2[C@@H]1O[C@H](COP(=O)(O)OP(=O)(O)O)[C@@H](O)[C@H]1O` [ADP, adenosine diphosphate], in test [1], the Km came to 70 ± 8 µM and the Vmax was 120 ± 20 s⁻¹.
For the molecule `Nc1ncnc2c1ncn2[C@@H]1O[C@H](COP(=O)(O)O)[C@@H](O)[C@H]1O` [AMP], in test [1], the Km was 161 ± 21 µM and the Vmax came to 102 ± 3 s⁻¹.
For the molecule `Nc1ncnc2c1ncn2[C@@H]1O[C@H](COP(=O)(O)OP(=O)(O)OP(=O)(O)O)[C@@H](O)[C@H]1O` [ATP, Adenosine triphosphate], in test [1], the Michaelis constant (Km) was found to be 1400 ± 123 µM.
The term Ki denotes the dissociation constant of the complex between target and ligand, obtained from inhibition or displacement. Consider `O=[N+]([O-])c1ccc(O)cc1` [p-nitrophenol], for which the Ki was 9.31 ± 1.94 µM in test [2] (setting [4]) and 10.1 ± 2.1 µM in test [2] (substrate pNPPT, product inhibition, read-out: Ki for p-nitrophenol (Dixon plot)).
For `Cc1cn([C@H]2C[C@H](O)[C@@H](COP(=O)(O)Oc3ccc([N+](=O)[O-])cc3)O2)c(=O)[nH]c1=O` [pNPPT, thymidine-5'-monophosphate-p-nitrophenyl ester], the “kcat (apparent), pNPPT as substrate” value in test [2] (10 mM MgCl2, 40 mM TAPS, 150 mM NaCl, pH 9.0, 25° C.) is given as 0.031±0.05 min^-1. In test [2] (10 mM MgCl2, 40 mM TAPS, 150 mM NaCl, pH 9.0, 25° C., read-out: Km (apparent), pNPPT as substrate), the Michaelis-Menten constant (Km) was determined as 290 ± 80 µM.
As for “thymidine 3'-O-(7-hydroxy-4-methyl coumarin) phosphorodithioate [hapten]”, the Ki in test [1] (substrate ATP, read-out: Ki (competitive inhibitor of ATP hydrolysis)) came to 559 µM; in test [2] (setting [4]), 199 ± 54 µM; in test [3], 758 ± 57 µM.
